# Measurements as given in article PMC3325374 (Journal of Medicinal Chemistry, 2012).
# System: MDR1-MDCK cell monolayers
# Experiment: MDR1-MDCK monolayer permeability assay
# Format: in vitro ADME
# Settings: judged from MDR1-MDCK efflux ratio
smiles,measurement,value
N#CCNC(=O)[C@H](Cc1c[nH]cn1)NC(=O)OCc1ccccc1 [Compound 10],P-gp mediated efflux (in words),subject to P-gp mediated efflux
